From patent US9481899B2, “Methods and compositions for producing hydrocarbons” (priority 2008, dated 2016) come the findings set out here.

In the assay the target is T1, Npun02004178 protein (Nostoc punctiforme, UniProt B2J1M1).
T1 construct: made in house; host or cells: E. coli BL21 (DE3)
T1 sequence (B2J1M1 1-232): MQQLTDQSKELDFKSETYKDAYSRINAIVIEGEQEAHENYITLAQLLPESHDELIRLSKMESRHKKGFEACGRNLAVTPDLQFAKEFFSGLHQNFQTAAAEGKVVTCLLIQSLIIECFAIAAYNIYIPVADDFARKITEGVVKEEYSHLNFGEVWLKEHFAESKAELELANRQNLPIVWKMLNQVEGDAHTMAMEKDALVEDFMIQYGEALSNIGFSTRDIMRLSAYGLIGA
The assay is described as follows: In-vitro fatty aldehyde decarbonylase assay. The assay is classed as biochemical, Nostoc punctiforme PCC73102. On the procedure:
The genomic DNA encoding N. punctiforme PCC73102 Npun02004178 (SEQ ID NO:5) was cloned into the NdeI and XhoI sites of vector pET-15b under the control of the T7 promoter. The resulting Npun02004178 protein contained an N-terminal His-tag. An E. coli BL21 strain (DE3) (Invitrogen) was transformed with the plasmid by routine chemical transformation techniques. Protein expression was carried out by first inoculating a colony of the E. coli strain in 5 mL of LB media supplemented with 100 mg/L of carbenicillin and shaken overnight at 37° C. to produce a starter culture. This starter cultures was used to inoculate 0.5 L of LB media supplemented with 100 mg/L of carbenicillin. […] Protein concentration was determined using the Bradford assay (Biorad). […]
To test Npun02004178 protein for decarbonylation activity, the following enzyme assays were set-up. […] Samples were analyzed by GC/MS using the following parameters: run time: 13.13 min; column: HP-5-MS Part No. 19091S-433E (length of 30 meters; I.D.: 0.25 mm narrowbore; film: 0.25 ìM); inject: 1 ìl Agilent 6850 inlet; inlet: 300 C splitless; carrier gas: helium; flow: 1.3 mL/min; oven temp: 75° C. hold 5 min, 320 at 40° C./min, 320 hold 2 min; det: Agilent 5975B VL MSD; det. temp: 330° C.; scan: 50-550 M/Z. Heptadecane from Sigma was used as an authentic reference for determining compound retention time and fragmentation pattern. […]

Turning to `CCCCCCCCCCCCCCCCCC=O` [octadecanal], the “in-vitro conversion of octadecanal to heptadecane” value (30 μM Npun02004178, 200 μM octadecanal, spinach ferredoxin, spinach ferredoxin reductase, 1 mM NADPH, 37° C., 2 h) is recorded as “conversion of octadecanal to heptadecane was observed”; the “in-vitro conversion of octadecanal to heptadecane” value (NADPH, cyanobacterial ferredoxin oxidoreductase and any of the three cyanobacterial ferredoxins) was “conversion of octadecanal to heptadecane was observed”.
